Earlier results in article PMC12415690 (RSC Advances, 2025).
Values after ≈ are worked out from the molar mass of the structure shown. Where two headings read alike, the source gives them in different places.

Assays:
[1] = system: Mycobacterium tuberculosis; details: cited from earlier work
[2] = system: M.tb H37Rv; details: H37Rv strain; cited from earlier work
[3] = system: dormant M. tuberculosis H37Ra; details: cited from earlier work

In the case of `Cc1csc(C(C)(O)c2nnc(Nc3cccc(Br)n3)s2)n1` (stereo not shown) [1-(5-((6-bromopyridin-2-yl)amino)-1,3,4-thiadiazol-2-yl)-1-(4-methylthiazol-2-yl)ethanol], the MIC ([1]; thiazole-thiadiazole hybrids) is given as 1 µM.
For `O=[N+]([O-])c1ccc(-c2csc(N/N=C/C=C(\Cl)c3ccc(Cl)cc3)n2)cc1` [2-((E)-2-((Z)-3-chloro-3-(4-chlorophenyl)allylidene)hydrazinyl)-4-(4-nitrophenyl)thiazole], the MIC ([1]; (E)-2-(2-allylidenehydrazinyl)thiazole derivatives) is listed as 6.5 µg/mL.
For `CCOC(=O)c1nc(-c2ccc(C#N)cc2)sc1C1CCCCC1` [ethyl 2-(4-cyanophenyl)-5-cyclohexylthiazole-4-carboxylate], the MIC [2] is listed as 2.1 µg/mL (≈ 6.17 µM) and the “inhibition against dormant M. tuberculosis H37Ra” value [3] is listed as 91%.
